Measurements reported in patent US8715706B2, “Methods and devices for delivery of pharmaceutical agents within orifices of the body” (RDD Pharma, Ltd., priority 2009, dated 2014).

What was measured:
anal sphincter [1] = test: Rectal manometry of resting anal pressure after Nifedipine from localized drug release system; assay type: in vivo, human; conditions: 90 minutes after insertion, N 6
Experimental: Six healthy individuals were selected for measuring resting anal pressure as a function of different doses of Nifedipine administered using a localized drug release system as per an embodiment of the present invention.
All dimensions are when empty before filling with API. When tested in a water bath, substantially all the API exited the shell within 40 minutes.
(§1) The measurements were conducted using 4 mg, 12 mg or 24 mg of Nifedipine as API, respectively. A Nifedipine (API) solution was prepared at 45 degrees Celsius in a heated water bath. A 22 gauge dispensing needle (Techon Systems) was inserted through the tail and into the coated shell of the drug release system. While the shell was evacuated of air, one milliliter of Nifedipine compound was delivered to the shell via a syringe attached to the needle. A clip was used to seal the tail and the system was left until the Nifedipine became solid.
A rectal manometry was used to measure resting anal pressure at baseline (before insertion) and 90 minutes after insertion of each shell with the relevant amount of API in a volume of one milliliter. The time of release of the API (API release time) ranged between 20-25 minutes (the variation due to changes in the normal human body temperature). FIGS. 12A and 12C graphically display the results of this study.

anal canal = conditions: topical, cited from earlier work
anal sphincter [2] = test: Rectal manometry of resting and squeezing anal pressure tonus after Phenylephrine from localized drug release system; assay type: in vivo, human; set-up: Squeeze Rectal ref max / Squeeze Abs ref mean: unit not given here
Experimental: The measurements conducted included resting anal pressure tonus and squeezing anal pressure tonus.
as §1, with “using 40” for “using 4 mg, 12”, “mg and 80” for “mg or 24”, “of Phenylephprine” for “of Nifedipine”, “A Phenylephprine” for “A Nifedipine”, “the Phenylephrine” for “the Nifedipine”
A rectal manometer was used to measure resting anal pressure tonus and squeezing anal pressure tonus at baseline (before insertion), […] amount of API in a volume of one milliliter. The API release time ranged between 20-25 minutes (the variation due to changes in the normal human body temperature). The results are shown below in Table III (40 mg) and Table IV (80 mg). Values shown in bold lettering in Table IV represent statistically significant difference (p<0.05) from baseline value, using paired t-test.

[3] = pK studies, rectal rate of absorption using drug release system; conditions: rectally, drug release system of Example 1, FIGS. 14 and 15
Text: Accordingly, it is intended to embrace all such alternatives, modifications and variations that fall within the spirit and broad scope of the appended claims.

For `COC(=O)C1=C(C)NC(C)=C(C(=O)OC)C1c1ccccc1[N+](=O)[O-]` [Nifedipine], the “Resting Max Pressure Rectal Ref, Max” value (anal sphincter [1]; 4 mg) was 151.0, the “Resting Max Pressure Rectal Ref, Mean” value (anal sphincter [1]; 4 mg) was 111.6 and the “Resting Max Pressure Rectal Ref, Median” value (anal sphincter [1]; 4 mg) was 111.5. The “Resting Max Pressure Rectal Ref, Min” value (anal sphincter [1]; 4 mg) was 72.2, the “Resting Mean Pressure Rectal Ref, Max” value (anal sphincter [1]; 4 mg) was 124.0 and the “Resting Mean Pressure Rectal Ref, Mean” value (anal sphincter [1]; 4 mg) was 94.2. For the same compound, the “Resting Mean Pressure Rectal Ref, Median” value (anal sphincter [1]; 4 mg) was 92.3, the “Resting Mean Pressure Rectal Ref, Min” value (anal sphincter [1]; 4 mg) was 57.7 and the “Resting Max Pressure Rectal Ref, Max” value (anal sphincter [1]; 12 mg) was 187.1. For the same compound, the “Resting Max Pressure Rectal Ref, Mean” value (anal sphincter [1]; 12 mg) was 105.9, the “Resting Max Pressure Rectal Ref, Median” value (anal sphincter [1]; 12 mg) was 88.0 and the “Resting Max Pressure Rectal Ref, Min” value (anal sphincter [1]; 12 mg) was 79.8. For the same compound, the “Resting Mean Pressure Rectal Ref, Max” value (anal sphincter [1]; 12 mg) was 89.4, the “Resting Mean Pressure Rectal Ref, Mean” value (anal sphincter [1]; 12 mg) was 75.0 and the “Resting Mean Pressure Rectal Ref, Median” value (anal sphincter [1]; 12 mg) was 73.2. For the same compound, the “Resting Mean Pressure Rectal Ref, Min” value (anal sphincter [1]; 12 mg) was 58.9, the “Resting Max Pressure Rectal Ref, Max” value (anal sphincter [1]; 24 mg) was 153.7 and the “Resting Max Pressure Rectal Ref, Mean” value (anal sphincter [1]; 24 mg) was 90.2. The “Resting Max Pressure Rectal Ref, Median” value (anal sphincter [1]; 24 mg) was 79.7, the “Resting Max Pressure Rectal Ref, Min” value (anal sphincter [1]; 24 mg) was 58.8 and the “Resting Mean Pressure Rectal Ref, Max” value (anal sphincter [1]; 24 mg) was 80.0. For the same compound, the “Resting Mean Pressure Rectal Ref, Mean” value (anal sphincter [1]; 24 mg) was 63.9, the “Resting Mean Pressure Rectal Ref, Median” value (anal sphincter [1]; 24 mg) was 64.4 and the “Resting Mean Pressure Rectal Ref, Min” value (anal sphincter [1]; 24 mg) was 51.7.
For `CNC[C@H](O)c1cccc(O)c1` [Phenylephrine], the resting pressure (anal canal; 30% and 40%, compared with placebo) is given as “significant increase in resting pressure at both time points compared with placebo”, the median resting pressure (anal canal; concentrations of 10% and 20%) is given as “modest increase in median resting pressure, this was not statistically significant” and the “Length HPV” value (anal sphincter [2]; 40 mg, 90 min) is given as 2.2 cm. The “Length Verge to center” value (anal sphincter [2]; 40 mg, 90 min) was 0.8 cm, the “Resting Abs ref Max” value (anal sphincter [2]; 40 mg, 90 min) was 109.0 mm Hg and the “Resting Abs ref Mean” value (anal sphincter [2]; 40 mg, 90 min) was 95.0 mm Hg. For the same compound, the “Resting rectal ref Max” value (anal sphincter [2]; 40 mg, 90 min) was 105.1 mm Hg, the “Resting rectal ref Mean” value (anal sphincter [2]; 40 mg, 90 min) was 91.2 mm Hg and the “Squeeze Abs ref mean” value (anal sphincter [2]; 40 mg, 90 min) was 348.7. For the same compound, the “Squeeze Rectal ref max” value (anal sphincter [2]; 40 mg, 90 min) was 332.4, the “Length HPV” value (anal sphincter [2]; 40 mg, 180 min) was 2.1 cm and the “Length Verge to center” value (anal sphincter [2]; 40 mg, 180 min) was 0.5 cm. The “Resting Abs ref Max” value (anal sphincter [2]; 40 mg, 180 min) was 127.8 mm Hg, the “Resting Abs ref Mean” value (anal sphincter [2]; 40 mg, 180 min) was 93.1 mm Hg and the “Resting rectal ref Max” value (anal sphincter [2]; 40 mg, 180 min) was 124.0 mm Hg. The “Resting rectal ref Mean” value (anal sphincter [2]; 40 mg, 180 min) was 89.2 mm Hg, the “Squeeze Abs ref mean” value (anal sphincter [2]; 40 mg, 180 min) was 336.5 and the “Squeeze Rectal ref max” value (anal sphincter [2]; 40 mg, 180 min) was 318.8. For the same compound, the “Length HPV” value (anal sphincter [2]; 40 mg, 240 min) was 2.5 cm, the “Length Verge to center” value (anal sphincter [2]; 40 mg, 240 min) was 0.8 cm and the “Resting Abs ref Max” value (anal sphincter [2]; 40 mg, 240 min) was 94.2 mm Hg. The “Resting Abs ref Mean” value (anal sphincter [2]; 40 mg, 240 min) was 82.5 mm Hg, the “Resting rectal ref Max” value (anal sphincter [2]; 40 mg, 240 min) was 88.7 mm Hg and the “Resting rectal ref Mean” value (anal sphincter [2]; 40 mg, 240 min) was 77.0 mm Hg. The “Squeeze Abs ref mean” value (anal sphincter [2]; 40 mg, 240 min) was 376.7, the “Squeeze Rectal ref max” value (anal sphincter [2]; 40 mg, 240 min) was 363.3 and the “mean resting anal pressure” value (anal sphincter [2]; 80 mg in 1 cc volume (8% concentration)) was “significant increase in the mean resting anal pressure”. The “Length HPV” value (anal sphincter [2]; 80 mg, 90 min) was 2.2 cm, the “Length Verge to center” value (anal sphincter [2]; 80 mg, 90 min) was 0.5 cm and the “Resting Abs ref Max” value (anal sphincter [2]; 80 mg, 90 min) was 139.9 mm Hg. The “Resting Abs ref Mean” value (anal sphincter [2]; 80 mg, 90 min) was 107.6 mm Hg, the “Resting rectal ref Max” value (anal sphincter [2]; 80 mg, 90 min) was 136.5 mm Hg and the “Resting rectal ref Mean” value (anal sphincter [2]; 80 mg, 90 min) was 104.2 mm Hg. For the same compound, the “Squeeze Abs ref mean” value (anal sphincter [2]; 80 mg, 90 min) was 364.1, the “Squeeze Rectal ref max” value (anal sphincter [2]; 80 mg, 90 min) was 352.4 and the “Length HPV” value (anal sphincter [2]; 80 mg, 180 min) was 2.6 cm. The “Length Verge to center” value (anal sphincter [2]; 80 mg, 180 min) was 0.7 cm, the “Resting Abs ref Max” value (anal sphincter [2]; 80 mg, 180 min) was 111.8 mm Hg and the “Resting Abs ref Mean” value (anal sphincter [2]; 80 mg, 180 min) was 90.8 mm Hg. For the same compound, the “Resting rectal ref Max” value (anal sphincter [2]; 80 mg, 180 min) was 109.2 mm Hg, the “Resting rectal ref Mean” value (anal sphincter [2]; 80 mg, 180 min) was 88.2 mm Hg and the “Squeeze Abs ref mean” value (anal sphincter [2]; 80 mg, 180 min) was 350.7. The “Squeeze Rectal ref max” value (anal sphincter [2]; 80 mg, 180 min) was 337.6, the “Length HPV” value (anal sphincter [2]; 80 mg, 270 min) was 2.5 cm and the “Length Verge to center” value (anal sphincter [2]; 80 mg, 270 min) was 0.9 cm. The “Resting Abs ref Max” value (anal sphincter [2]; 80 mg, 270 min) was 96.1 mm Hg, the “Resting Abs ref Mean” value (anal sphincter [2]; 80 mg, 270 min) was 83.1 mm Hg and the “Resting rectal ref Max” value (anal sphincter [2]; 80 mg, 270 min) was 92.5 mm Hg. The “Resting rectal ref Mean” value (anal sphincter [2]; 80 mg, 270 min) was 79.5 mm Hg, the “Squeeze Abs ref mean” value (anal sphincter [2]; 80 mg, 270 min) was 340.4 and the “Squeeze Rectal ref max” value (anal sphincter [2]; 80 mg, 270 min) was 321.2. For the same compound, the “anal sphincter pressures at resting and at squeezing conditions” value (anal sphincter [2]; 40 and 80 mg) was “increased in a dose-dependent manner”.
With Glucagon the rate of absorption [3] was “relatively quickly absorbed”.
